Here are results for 19 compounds from US20220241402A1, “COMBINATION OF HEPATITIS B VIRUS (HBV) VACCINES AND QUINAZOLINE DERIVATIVES” (Janssen Sciences Ireland Unlimited Company, priority 2019, published 2022).

In one assay the target is T1, human TLR7 (Homo sapiens, UniProt Q9NYK1).
T1 construct: expressed in transfected cells; host or cells: HEK293
T1 sequence (Q9NYK1 27-1049): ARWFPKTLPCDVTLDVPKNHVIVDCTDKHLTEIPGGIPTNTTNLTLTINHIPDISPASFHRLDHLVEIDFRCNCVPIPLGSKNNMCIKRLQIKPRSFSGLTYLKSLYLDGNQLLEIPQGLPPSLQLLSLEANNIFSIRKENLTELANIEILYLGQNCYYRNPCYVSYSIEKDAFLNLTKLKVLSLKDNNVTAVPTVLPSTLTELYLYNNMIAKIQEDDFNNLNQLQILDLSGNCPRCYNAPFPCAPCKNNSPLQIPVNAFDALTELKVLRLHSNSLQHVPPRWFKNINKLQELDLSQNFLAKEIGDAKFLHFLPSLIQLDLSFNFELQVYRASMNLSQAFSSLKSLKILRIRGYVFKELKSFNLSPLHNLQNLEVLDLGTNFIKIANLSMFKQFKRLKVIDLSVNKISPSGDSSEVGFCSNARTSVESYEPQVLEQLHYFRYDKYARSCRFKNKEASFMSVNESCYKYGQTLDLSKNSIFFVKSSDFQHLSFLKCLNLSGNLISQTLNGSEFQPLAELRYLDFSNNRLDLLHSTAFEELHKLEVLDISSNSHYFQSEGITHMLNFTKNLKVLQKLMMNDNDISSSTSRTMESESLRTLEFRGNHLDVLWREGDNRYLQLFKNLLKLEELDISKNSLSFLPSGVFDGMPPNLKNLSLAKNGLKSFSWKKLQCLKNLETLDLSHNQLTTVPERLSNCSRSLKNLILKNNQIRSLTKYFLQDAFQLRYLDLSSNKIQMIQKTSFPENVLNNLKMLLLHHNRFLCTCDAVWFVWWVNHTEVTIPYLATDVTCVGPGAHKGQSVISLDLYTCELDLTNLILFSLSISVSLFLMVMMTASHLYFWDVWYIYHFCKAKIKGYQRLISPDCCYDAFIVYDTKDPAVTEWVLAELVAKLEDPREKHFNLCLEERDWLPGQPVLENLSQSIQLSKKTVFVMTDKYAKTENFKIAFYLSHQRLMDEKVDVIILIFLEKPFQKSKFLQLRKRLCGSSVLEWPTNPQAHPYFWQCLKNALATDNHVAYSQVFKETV
Briefly: TLR7 cellular NFκB-luc reporter assay. As to conditions: lowest effective concentration; HEK293 cells transiently transfected with TLR7 and NFκB-luc, 6 h incubation. Set-up: unit not given here. It counts as cell-based. As to the method:
(§1) The ability of compounds to activate human TLR7 and/or TLR8 was assessed in a cellular reporter assay using HEK293 cells transiently transfected with a TLR7 or TLR8 expression vector and NFκB-luc reporter construct. In one instance, the TLR expression construct expresses the respective wild type sequence or a mutant sequence comprising a deletion in the second leucine-rich repeat of the TLR.
(§2) HEK293 cells were grown in culture medium (DMEM supplemented with 10% FCS and 2 mM Glutamine). For transfection of cells in 10 cm dishes, cells were detached with Trypsin-EDTA, transfected with a mix of CMV-TLR7 or TLR8 plasmid (750 ng), NFκB-luc plasmid (375 ng) and a transfection reagent and incubated 24 h at 37° C. in a humidified 5% CO2 atmosphere. Transfected cells were then detached with Trypsin-EDTA, washed in PBS and re-suspended in medium to a density of 1.67×10^5 cells/mL. Thirty microliters of cells were then dispensed into each well in 384-well plates, where 10 μL of compound in 4% DMSO was already present. Following 6 h incubation at 37° C., 5% CO2, the luciferase activity was determined by adding 15 μl of STEADY LITE PLUS substrate (PERKIN ELMER) to each well and readout performed on a VIEWLUX ULTRAHTS microplate imager (PERKIN ELMER). Dose response curves were generated from measurements performed in quadruplicates. Lowest effective concentrations (LEC) values, defined as the concentration that induces an effect which is at least two-fold above the standard deviation of the assay, were determined for each compound.
(In general: Reporter assays use an easily measured gene product as a stand-in for the process of interest.)

In the next assay the target is T2, human TLR8 (Homo sapiens, UniProt Q9NR97).
T2 construct: expressed in transfected cells; host or cells: HEK293
T2 sequence (Q9NR97 27-1041): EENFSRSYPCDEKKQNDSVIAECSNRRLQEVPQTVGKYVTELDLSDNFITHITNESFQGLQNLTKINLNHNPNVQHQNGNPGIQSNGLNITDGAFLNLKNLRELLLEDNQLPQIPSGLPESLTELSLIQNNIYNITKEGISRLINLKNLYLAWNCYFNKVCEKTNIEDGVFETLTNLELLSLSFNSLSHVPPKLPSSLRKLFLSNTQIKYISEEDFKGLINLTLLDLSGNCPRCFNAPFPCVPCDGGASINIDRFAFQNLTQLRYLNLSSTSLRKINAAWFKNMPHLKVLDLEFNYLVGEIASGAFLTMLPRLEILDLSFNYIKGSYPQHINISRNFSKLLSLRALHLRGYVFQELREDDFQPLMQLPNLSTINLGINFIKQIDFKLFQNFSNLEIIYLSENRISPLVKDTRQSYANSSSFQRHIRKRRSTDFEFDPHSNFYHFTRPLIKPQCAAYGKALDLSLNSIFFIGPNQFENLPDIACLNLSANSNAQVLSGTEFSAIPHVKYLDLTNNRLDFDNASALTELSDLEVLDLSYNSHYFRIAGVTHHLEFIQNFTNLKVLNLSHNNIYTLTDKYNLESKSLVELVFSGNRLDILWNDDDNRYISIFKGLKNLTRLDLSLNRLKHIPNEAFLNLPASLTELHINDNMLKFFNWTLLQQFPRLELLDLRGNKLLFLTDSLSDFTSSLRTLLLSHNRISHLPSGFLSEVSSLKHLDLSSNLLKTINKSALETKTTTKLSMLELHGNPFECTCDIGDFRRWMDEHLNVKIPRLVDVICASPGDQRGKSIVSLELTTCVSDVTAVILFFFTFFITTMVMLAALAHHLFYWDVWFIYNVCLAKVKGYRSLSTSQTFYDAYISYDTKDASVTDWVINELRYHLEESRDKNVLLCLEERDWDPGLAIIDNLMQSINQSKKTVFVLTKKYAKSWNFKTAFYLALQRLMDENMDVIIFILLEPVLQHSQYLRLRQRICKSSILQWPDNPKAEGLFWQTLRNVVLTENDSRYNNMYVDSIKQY
Briefly: TLR8 cellular NFκB-luc reporter assay. Type of assay: cell-based. More on the design: unit not given here. To be noted: lowest effective concentration; HEK293 cells transiently transfected with TLR8 and NFκB-luc, 6 h incubation. As to the method: as §1, §2

`CCC[C@H](CO)Nc1nc(N)nc2c(C)cccc12` [Compound 104, (R)-2-((2-amino-8-methylquinazolin-4-yl)amino)pentan-1-ol]: on human TLR7, the “hTLR7-wt (LEC)” value is above 25. Also, the “hTLR8-wt (LEC)” value on human TLR8 stood at 5.75.
With `CCCC[C@H](CO)Nc1nc(N)nc2cccc(C3CC3)c12` [Compound 99, (R)-2-((2-amino-5-cyclopropylquinazolin-4-yl)amino)hexan-1-ol], on human TLR7, the “hTLR7-wt (LEC)” value is recorded as above 100. Besides, the “hTLR8-wt (LEC)” value at human TLR8 stood at 0.35.
The matching figures for `CCCC[C@H](CO)Nc1nc(N)nc2cccc(C(F)(F)F)c12` [Compound 101, (R)-2-((2-amino-5-(trifluoromethyl)quinazolin-4-yl)amino)hexan-1-ol]: above 100 and 0.66.
For `CCCC[C@H](CO)Nc1nc(N)nc2cccc(Cl)c12` [Compound 113, (R)-2-((2-amino-5-chloroquinazolin-4-yl)amino)hexan-1-ol], on human TLR7, the “hTLR7-wt (LEC)” value is above 100.
Turning to `CC[C@H](C)[C@H](CO)Nc1nc(N)nc2cccc(F)c12` [Compound 119, (2R,3S)-2-((2-amino-5-fluoroquinazolin-4-yl)amino)-3-methylpentan-1-ol], on human TLR7, the “hTLR7-wt (LEC)” value turned out to be 1.71. Further, on human TLR8, the “hTLR8-wt (LEC)” value is 0.09.
The matching figures for `CCC[C@H](CO)Nc1nc(N)nc2c(F)cccc12` [Compound 108, (R)-2-((2-amino-8-fluoroquinazolin-4-yl)amino)pentan-1-ol]: above 25 and 3.27.
The matching figures for `CCCC[C@H](CO)Nc1nc(N)nc2cc(-c3nnco3)ccc12` [Compound 103, (R)-2-((2-amino-7-(1,3,4-oxadiazol-2-yl)quinazolin-4-yl)amino)hexan-1-ol]: above 25 and 0.38.
The matching figures for `CCCC[C@H](CO)Nc1nc(N)nc2cc(C#N)ccc12` [Compound 102, (R)-2-amino-4-((1-hydroxyhexan-2-yl)amino)quinazoline-7-carbonitrile]: above 100 and 0.14.
Consider `CSCC[C@H](CO)Nc1nc(N)nc2cccc(F)c12` [Compound 118, (R)-2-((2-amino-5-fluoroquinazolin-4-yl)amino)-4-(methylthio)butan-1-ol], for which, at human TLR7, the “hTLR7-wt (LEC)” value is given as above 50. Also, the “hTLR8-wt (LEC)” value on human TLR8 was found to be 0.7.
In the same order, the values of `CCCC[C@H](CO)Nc1nc(N)nc2c(C)cccc12` [Compound 105, (R)-2-((2-amino-8-methylquinazolin-4-yl)amino)hexan-1-ol] are above 25 and 0.46.
On to `CCCC[C@H](CO)Nc1nc(N)nc2c(F)cccc12` [Compound 107, (R)-2-((2-amino-8-fluoroquinazolin-4-yl)amino)hexan-1-ol], for which, on human TLR7, the “hTLR7-wt (LEC)” value is given as above 25. Moreover, the “hTLR8-wt (LEC)” value on human TLR8 was found to be 0.11.
In the same order, the values of `CCCC[C@H](CO)Nc1nc(N)nc2c(OC)cccc12` [Compound 115, (R)-2-((2-amino-8-methoxyquinazolin-4-yl)amino)hexan-1-ol] are above 50 and 3.74.
Take `CCCC[C@H](CO)Nc1nc(N)nc2cccc(F)c12` [Compound 100, (R)-2-((2-amino-5-fluoroquinazolin-4-yl)amino)hexan-1-ol]: the “hTLR7-wt (LEC)” value at human TLR7 worked out at 27.7. In addition, the “hTLR8-wt (LEC)” value on human TLR8 is reported as 0.07.
As to `CCCC[C@H](CO)Nc1nc(N)nc2c(Cl)cccc12` [Compound 106, (R)-2-((2-amino-8-chloroquinazolin-4-yl)amino)hexan-1-ol], the “hTLR7-wt (LEC)” value at human TLR7 is above 25. Besides, the “hTLR8-wt (LEC)” value at human TLR8 is reported as 2.72.
With `CCCC[C@H](COC(=O)C(C)C)Nc1nc(N)nc2c(C)cccc12` [Compound 109, (R)-2-((2-amino-8-methylquinazolin-4-yl)amino)hexyl isobutyrate], the “hTLR7-wt (LEC)” value on human TLR7 is on record as above 25. Further, on human TLR8, the “hTLR8-wt (LEC)” value turned out to be 0.64.
In the same order, the values of `CCCC[C@H](CO)Nc1nc(N)nc2c(F)c(F)ccc12` [Compound 117, (R)-2-((2-amino-7,8-difluoroquinazolin-4-yl)amino)hexan-1-ol] are above 100 and 0.41.
Consider `CCCC[C@H](CO)Nc1nc(N)nc2cc(C(=O)OC)ccc12` [Compound 116, Methyl (R)-2-amino-4-((1-hydroxyhexan-2-yl)amino)quinazoline-7-carboxylate], for which, at human TLR7, the “hTLR7-wt (LEC)” value is reported as above 100. Further, on human TLR8, the “hTLR8-wt (LEC)” value amounted to 0.57.
As to `CCCC[C@H](CO)Nc1nc(N)nc2cccc(C)c12` [Compound 114, (R)-2-((2-amino-5-methylquinazolin-4-yl)amino)hexan-1-ol], the “hTLR7-wt (LEC)” value at human TLR7 is above 100.
As to `CCCC[C@H](CO)Nc1nc(N)nc2cc(F)ccc12` [Compound 111, (R)-2-((2-amino-7-fluoroquinazolin-4-yl)amino)hexan-1-ol], the “hTLR8-wt (LEC)” value on human TLR8 was determined as 0.04.
